According to ChEMBL document CHEMBL1136755, “Mapping property distributions of molecular surfaces: algorithm and evaluation of a novel 3D quantitative structure-activity relationship technique” (J Med Chem, 2003):
pEC50: −log10 of the molar value.

Key:
Oryctolagus cuniculus = assay: Eye irritation potential accessed using Draize in vivo rabbit eye irritation test; format: functional
[1] = target: T1, Muscarinic acetylcholine receptor M2 (Sus scrofa, UniProt P06199); assay: Ability to dissociate radioligand [3H]NMS from muscarinic acetylcholine receptor M2 of porcine heart
T1 sequence (P06199 whole entry): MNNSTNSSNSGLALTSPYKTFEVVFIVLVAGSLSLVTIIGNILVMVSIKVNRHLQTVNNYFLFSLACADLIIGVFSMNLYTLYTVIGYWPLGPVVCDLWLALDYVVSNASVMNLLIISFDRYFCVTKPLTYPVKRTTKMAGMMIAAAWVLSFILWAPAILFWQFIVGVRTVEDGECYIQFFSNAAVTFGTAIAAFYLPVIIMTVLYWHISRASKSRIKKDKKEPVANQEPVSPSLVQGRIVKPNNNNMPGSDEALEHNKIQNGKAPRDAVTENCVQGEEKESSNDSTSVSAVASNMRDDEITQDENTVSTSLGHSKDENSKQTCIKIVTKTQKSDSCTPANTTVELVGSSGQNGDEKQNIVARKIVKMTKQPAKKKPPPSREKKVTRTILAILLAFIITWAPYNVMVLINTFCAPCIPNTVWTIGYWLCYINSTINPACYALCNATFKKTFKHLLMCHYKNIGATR

[2] = target: T2, Corticosteroid-binding globulin (Homo sapiens) (UniProt P08185)
T2 sequence (whole entry): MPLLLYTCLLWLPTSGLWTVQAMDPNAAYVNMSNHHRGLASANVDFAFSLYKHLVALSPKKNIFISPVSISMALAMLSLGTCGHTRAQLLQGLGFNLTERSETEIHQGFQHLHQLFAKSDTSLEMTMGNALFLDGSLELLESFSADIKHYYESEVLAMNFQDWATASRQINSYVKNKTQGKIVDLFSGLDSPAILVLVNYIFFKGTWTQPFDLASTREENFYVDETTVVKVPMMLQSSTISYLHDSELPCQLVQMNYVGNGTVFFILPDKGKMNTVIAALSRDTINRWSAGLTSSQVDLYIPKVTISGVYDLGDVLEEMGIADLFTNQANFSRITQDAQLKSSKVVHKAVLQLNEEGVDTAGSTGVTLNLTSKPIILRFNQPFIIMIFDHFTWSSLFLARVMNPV
Description: Binding affinity towards corticosteroid-binding globulin (CBG)

[3] = target: T2, Corticosteroid-binding globulin (Homo sapiens); remark: listed apart in the source
Description: Binding affinity towards corticosteroid binding globulin (CBG)

C=CCCC=C
MES (Oryctolagus cuniculus): 0.55

CC1CC(=O)N(CCC[N+](C)(C)CCCCCCC[N+](C)(C)CCCN2C(=O)CC(C)C2=O)C1=O (stereo not given)
pEC50 [1]: 4.50

C[C@]12CCC(=O)C=C1CC[C@@H]1[C@@H]2[C@@H](O)C[C@@]2(C)[C@H]1CC[C@]2(O)C(=O)CO
Log K [2]: 7.88

C[C@]12C[C@@H](O)[C@H]3[C@@H](CCC4=CC(=O)CC[C@@]43C)[C@@H]1CC[C@@H]2C(=O)CO
Log K [2]: 7.2

C[N+](C)(CCCCCCO)CCCN1C(=O)c2ccccc2C1=O
pEC50 [1]: 4.62

Nc1ccc(F)cc1
MES (Oryctolagus cuniculus): 6.62

CC(C)=O [ACETONE]
MES (Oryctolagus cuniculus): 4.83

CCCCCC[N+](C)(C)CCCN1C(=O)c2ccccc2C1=O
pEC50 [1]: 4.27

CC1CCCC1 [METHYLCYCLOPENTANE]
MES (Oryctolagus cuniculus): 0.41

Cc1ccc(C)cc1 [P-XYLENE]
MES (Oryctolagus cuniculus): 1.1

Cc1ccc2c(c1)C(=O)N(CCCN(CCCCCCN(CCCN1C(=O)c3ccc(C)cc3C1=O)C1CCCCC1)C1CCCCC1)C2=O
pEC50 [1]: 7.22

C=Cc1ccccc1 [STYRENE]
MES (Oryctolagus cuniculus): 0.77

C1=C\CCCCCC/1 [CYCLOOCTENE]
MES (Oryctolagus cuniculus): 0.43

CC(C)CO [ISOBUTANOL]
MES (Oryctolagus cuniculus): 6.44

CCOC(=O)C(C)(C)C
MES (Oryctolagus cuniculus): 0.63

C[N+](C)(CCCCCC[N+](C)(C)CCCN1c2ccccc2C(=O)NC1c1ccccc1)CCCN1c2ccccc2C(=O)NC1c1ccccc1 (stereo not given)
pEC50 [1]: 6.13

C[C@]12CC[C@@H]3c4ccc(O)cc4CC[C@H]3[C@@H]1C[C@@H](O)[C@@H]2O
Log K [2]: 5

CC(=O)[C@H]1CC[C@H]2[C@@H]3CCC4=CC(=O)CC[C@]4(C)[C@H]3C(=O)C[C@]12C
Log K [2]: 6.78

C[C@]12CC[C@@H]3c4ccc(O)cc4CC[C@H]3[C@@H]1CC[C@@H]2O
Log K [2]: 5

CC(=O)[C@H]1CC[C@H]2[C@@H]3CCC4=CC(=O)CC[C@]4(C)[C@H]3CC[C@]12C
Log K [2]: 7.38

C=CCCCCCCC=C
MES (Oryctolagus cuniculus): 0.37

C[N+](C)(CCCCCCC[N+](C)(C)CCCN1C(=O)c2ccccc2C1=O)CCCN1C(=O)c2ccccc2C1=O
pEC50 [1]: 6.41

CC(=O)[C@@]1(O)CC[C@H]2[C@@H]3CCC4=CC(=O)CC[C@]4(C)[C@H]3CC[C@@]21C
Log K [2]: 7.74

CC(=O)[C@H]1CC[C@H]2[C@@H]3CC=C4C[C@@H](O)CC[C@]4(C)[C@H]3CC[C@]12C
Log K [2]: 5.25

CC(=O)[C@@]1(O)CC[C@H]2[C@@H]3CC[C@@H]4C[C@H](O)CC[C@]4(C)[C@H]3CC[C@@]21C
Log K [2]: 5

C[N+](C)(CCCCCCC[N+](C)(C)CCCN1C(=O)[C@@H]2CCCC[C@H]2C1=O)CCCN1C(=O)[C@H]2CCCC[C@@H]2C1=O
pEC50 [1]: 6.10

CCC(C)(C)C(=O)O [DIMEBUTIC ACID]
MES (Oryctolagus cuniculus): 5.59

C[N+](C)(CCCCCC[N+](C)(C)CCCN1C(=O)c2cccnc2C1=O)CCCN1C(=O)c2ccccc2C1=O
pEC50 [1]: 5.63

O=C1c2ccccc2C(=O)N1CCCN(CCCCCCN(CCCN1C(=O)c2ccccc2C1=O)C1CCCCC1)C1CCCCC1
pEC50 [1]: 7.35

C[C@]12CC[C@H]3[C@@H](CCC4=CC(=O)CC[C@@]43C)[C@@H]1CC[C@@H]2O
Log K [2]: 6.72

CC(=O)[C@H]1CC[C@H]2[C@@H]3CCC4=CC(=O)CC[C@@H]4[C@H]3CC[C@]12C
Log K [2]: 6.82

C[C@@H]1C[C@@]2(C)C(=CC1=O)CC[C@H]1[C@@H]3CC[C@](O)(C(=O)CO)[C@@]3(C)C[C@H](O)[C@@]12F
Log K [2]: 5.8

C[N+](C)(CCCCCC[N+](C)(C)CCCN1C(=O)c2ccccc2C1=O)CCCN1C(=O)CCC1=O
pEC50 [1]: 5.01

CCC(C)=O [BUTANONE]
MES (Oryctolagus cuniculus): 4.48

C[C@]12CC[C@H]3[C@@H](CCC4=CC(=O)CC[C@@]43C)[C@@H]1CC[C@@H]2C(=O)CO
Log K [2]: 7.65

CCCCOC(C)=O [ACETIC ACID BUTYL ESTER]
MES (Oryctolagus cuniculus): 0.99

CCCCCCO [1-HEXANOL]
MES (Oryctolagus cuniculus): 8.13

CCCCC(CC)CO (stereo not given)
MES (Oryctolagus cuniculus): 7.82

CC(=O)[C@H]1[C@H](C)C[C@H]2[C@@H]3CCC4=CC(=O)CC[C@]4(C)[C@H]3CC[C@@]21C
Log K [2]: 7.12

C[C@]12CCC(=O)C=C1CC[C@@H]1[C@@H]2CC[C@@]2(C)[C@H]1CC[C@]2(O)C(=O)CO
Log K [2]: 7.88

CCC(C)c1ccccc1 (stereo not given)
MES (Oryctolagus cuniculus): 0.31

CCOC(=O)C(C)C(C)=O (stereo not given)
MES (Oryctolagus cuniculus): 2.55

CCOC(C)=O [ETHYL ACETATE]
MES (Oryctolagus cuniculus): 1.47

OCC(O)CO [GLYCERIN]
MES (Oryctolagus cuniculus): 0.12

COC(=O)C(C)(C)C
MES (Oryctolagus cuniculus): 0.36

CCOCC(=O)O
MES (Oryctolagus cuniculus): 2.03

CC(=O)[C@@]1(O)[C@H](O)C[C@H]2[C@@H]3CCC4=CC(=O)CC[C@]4(C)[C@H]3CC[C@@]21C
Log K [2]: 6.25

C[C@]12CCC(=O)C=C1CC[C@@H]1[C@@H]2[C@@H](O)C[C@]2(C=O)[C@@H](C(=O)CO)CC[C@@H]12
Log K [3]: 6.28

C[C@]12CCC(=O)C=C1CC[C@@H]1[C@@H]2C(=O)C[C@@]2(C)[C@H]1CC[C@]2(O)C(=O)CO
Log K [2]: 6.89

CC(=O)CC(C)C [METHYL ISOBUTYL KETONE]
MES (Oryctolagus cuniculus): 0.59

CC(C)c1cccc(C(C)C)c1
MES (Oryctolagus cuniculus): 0.38

COc1ccc(CCN(C)CCCC(C#N)(c2ccc(OC)c(OC)c2)C(C)C)cc1OC (stereo not given)
pEC50 [1]: 4.51

CCCC(C)C
MES (Oryctolagus cuniculus): 0.26

CCCCCCCCCCCC [DODECANE]
MES (Oryctolagus cuniculus): 0.45

C[N+](C)(CCCCCC[N+](C)(C)CCCN1C(=O)c2cc3ccccc3cc2C1=O)CCCN1C(=O)c2ccccc2C1=O
pEC50 [1]: 6.83

C[N+](C)(CCCCCC[N+](C)(C)CCCN1C(=O)CC2c3ccccc3C(C1=O)c1ccccc12)CCCN1C(=O)c2ccccc2C1=O
pEC50 [1]: 6.40

N#CCCN(CCCCCCN(CCC#N)CCCN1C(=O)c2ccccc2C1=O)CCCN1C(=O)c2ccccc2C1=O
pEC50 [1]: 6.13

CC(=O)OCC(=O)[C@@]1(O)CC[C@H]2[C@@H]3CCC4=CC(=O)CC[C@]4(C)[C@H]3[C@@H](O)C[C@@]21C
Log K [2]: 7.55

C[C@@H]1C(=O)N(CCC[N+](C)(C)CCCCCCC[N+](C)(C)CCCN2C(=O)[C@H](C)[C@@H](C)C2=O)C(=O)[C@H]1C
pEC50 [1]: 4.92

CCCCOCCO [BUTOXYETHANOL]
MES (Oryctolagus cuniculus): 8.99

O=[N+]([O-])c1ccc(F)cc1F
MES (Oryctolagus cuniculus): 0.4

C[N+](C)(CCCCCCC[N+](C)(C)CCCN1C(=O)CCC1=O)CCCN1C(=O)CCC1=O
pEC50 [1]: 3.82

C[C@]12CC[C@H]3[C@@H](CCC4=CC(=O)CC[C@@H]43)[C@@H]1CC[C@@H]2O
Log K [2]: 6.14

C[N+](C)(CCCCCCC[N+](C)(C)CCCN1C(=O)[C@H]2CC=CC[C@H]2C1=O)CCCN1C(=O)[C@H]2CC=CC[C@H]2C1=O
pEC50 [1]: 5.66

C[C@]12CC[C@H](O)C[C@@H]1CC[C@@H]1[C@@H]2CC[C@]2(C)[C@@H](O)CC[C@@H]12
Log K [2]: 5

CCc1cccc(C)c1
MES (Oryctolagus cuniculus): 0.32

COC(C)=O [ACETIC ACID METHYL ESTER]
MES (Oryctolagus cuniculus): 3.14

CC(C)O [ISOPROPYL ALCOHOL]
MES (Oryctolagus cuniculus): 2.34

O=C1c2ccccc2C(=O)N1CCCN(CCCCCCN(CCCc1ccccc1)CCCN1C(=O)c2ccccc2C1=O)CCCc1ccccc1
pEC50 [1]: 6.00

C[C@]12CC[C@H](O)CC1=CC[C@@H]1[C@@H]2CC[C@]2(C)C(=O)CC[C@@H]12
Log K [2]: 5

C[C@]12C[C@H](O)[C@H]3[C@@H](CCC4=CC(=O)CC[C@@]43C)[C@@H]1CC[C@@H]2C(=O)CO
Log K [2]: 7.88

C[C@]12CCC(=O)C=C1CC[C@@H]1[C@@H]2CC[C@]2(C)C(=O)CC[C@@H]12
Log K [2]: 5.76

OC1CCCCC1 [CYCLOHEXANOL]
MES (Oryctolagus cuniculus): 8.29

CC[N+](C)(C)CCCCCC[N+](C)(C)CCCN1C(=O)c2ccccc2C1=O
pEC50 [1]: 5.00

CCCCO [BUTYL ALCOHOL]
MES (Oryctolagus cuniculus): 5.47

O=C1c2ccccc2C(=O)N1CCCCBr
MES (Oryctolagus cuniculus): 0.19

CCCCCC(C)=O
MES (Oryctolagus cuniculus): 2.26

C[N+](C)(CCCCCCC[N+](C)(C)CCCN1C(=O)[C@H]2CCCC[C@H]2C1=O)CCCN1C(=O)[C@H]2CCCC[C@H]2C1=O
pEC50 [1]: 5.35

CCOC(=O)CCCCCC[N+](C)(C)CCCN1C(=O)c2ccccc2C1=O
pEC50 [1]: 3.96

C/C1=C/C=C\C(C)CCC1 (stereo not given)
MES (Oryctolagus cuniculus): 0.44

Cc1ccccc1 [TOLUENE]
MES (Oryctolagus cuniculus): 0.96

C[C@]12C=CC(=O)C=C1CC[C@@H]1[C@@H]2[C@@H](O)C[C@@]2(C)[C@H]1CC[C@]2(O)C(=O)CO
Log K [2]: 7.51

C[N+](C)(CCCCCC[N+](C)(C)CCCN1C(=O)c2cccc3cccc(c23)C1=O)CCCN1C(=O)c2ccccc2C1=O
pEC50 [1]: 7.20

CCCC(C)CC (stereo not given)
MES (Oryctolagus cuniculus): 0.1

CC(O)CO (stereo not given) [PROPYLENE GLYCOL]
MES (Oryctolagus cuniculus): 0.1
